{
  "source": "patent US20250177333A1",
  "about": "“METHOD FOR TREATING RHEUMATOID ARTHRITIS (RA) USING AN ENZYME-AND SUBSTRATE SELECTIVE EXOSITE INHIBITOR OF A DISINTEGRIN AND METALLOPROTEASE 10 (ADAM10)” (Nova Southeastern University, priority 2022, published 2025)",
  "key": {"[1]": {"test_system": "collagen-induced arthritis model", "experiment": "Collagen-induced arthritis (CIA) in vivo model", "design": "species or system rat", "source_text": "FIG. 1 is a graph showing disease scores of rat collagen-induced arthritis model study of CID3117694. The disease score is used to assess severity of rheumatoid arthritis (RA) by measuring disease activity, functional impairment, and physical damage present. FIG. 2 is a graph showing paw swelling measurements of rat collagen-induced arthritis model study of CID3117694.* FIGS. 3A-F show micrographs of paw swelling observations of rat collagen-induced arthritis model study of CID3117694. […] The following scale was used: Score 0: normal: Score 1: one joint type (A, B or C) has redness and swelling: Score 2: Two joint types have redness and swelling: Score 3: all three joint types have redness and swelling; and Score 4: maximal redness and swelling of the entire paw leads to disappearance of anatomical definition. […] To test the efficacy of using ADAM10 inhibitor. CID3117694, for treatment of rheumatoid arthritis (RA), the instant inventor conducted a study using the […] Collagen-induced Arthritis (CIA) in vivo model. This model is a gold standard for RA pre-clinical studies of investigational drugs."}, "ADAM17 [2]": {"biological_target": "T1, ADAM17 (Homo sapiens, UniProt P78536)", "T1 sequence (P78536 215-824, species assumed)": "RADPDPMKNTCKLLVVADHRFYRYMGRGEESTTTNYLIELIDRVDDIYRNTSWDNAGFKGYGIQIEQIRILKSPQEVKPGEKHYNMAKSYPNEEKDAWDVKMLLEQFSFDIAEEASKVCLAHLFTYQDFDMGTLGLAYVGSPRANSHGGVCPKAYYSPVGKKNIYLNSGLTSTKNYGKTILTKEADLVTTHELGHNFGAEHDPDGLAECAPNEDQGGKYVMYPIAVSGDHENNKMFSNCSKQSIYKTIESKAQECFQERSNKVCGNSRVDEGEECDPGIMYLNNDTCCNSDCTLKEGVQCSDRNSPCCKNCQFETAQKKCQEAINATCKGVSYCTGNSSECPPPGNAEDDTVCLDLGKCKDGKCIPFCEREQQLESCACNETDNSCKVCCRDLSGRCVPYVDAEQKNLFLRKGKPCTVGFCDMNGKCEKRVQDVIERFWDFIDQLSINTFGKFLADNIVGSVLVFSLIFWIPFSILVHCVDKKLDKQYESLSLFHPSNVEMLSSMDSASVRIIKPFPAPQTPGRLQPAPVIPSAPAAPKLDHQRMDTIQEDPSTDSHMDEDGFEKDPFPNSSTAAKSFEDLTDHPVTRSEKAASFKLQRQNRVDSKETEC", "conditions": "cited from earlier work"}, "ADAM10 [3]": {"biological_target": "T2, ADAM10 (Homo sapiens, UniProt O14672)", "T2 sequence (O14672 214-748)": "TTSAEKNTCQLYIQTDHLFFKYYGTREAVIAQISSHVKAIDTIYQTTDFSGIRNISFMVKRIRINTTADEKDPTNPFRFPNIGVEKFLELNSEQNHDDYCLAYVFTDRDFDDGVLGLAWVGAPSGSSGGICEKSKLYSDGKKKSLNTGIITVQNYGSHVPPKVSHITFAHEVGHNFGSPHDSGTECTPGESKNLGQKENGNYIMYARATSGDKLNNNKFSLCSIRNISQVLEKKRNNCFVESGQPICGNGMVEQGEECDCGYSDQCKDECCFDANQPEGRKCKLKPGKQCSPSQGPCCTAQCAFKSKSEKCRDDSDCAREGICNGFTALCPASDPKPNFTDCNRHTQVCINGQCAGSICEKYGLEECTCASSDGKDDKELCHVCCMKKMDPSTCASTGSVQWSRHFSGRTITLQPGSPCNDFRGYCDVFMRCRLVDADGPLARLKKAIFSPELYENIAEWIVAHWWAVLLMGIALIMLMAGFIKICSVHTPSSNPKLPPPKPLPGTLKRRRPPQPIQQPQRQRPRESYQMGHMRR", "conditions": "cited from earlier work"}, "opioid receptors (OPRM1)": {"biological_target": "opioid receptors (OPRM1) (Homo sapiens, UniProt P35372)", "sequence (P35372 whole entry, species assumed)": "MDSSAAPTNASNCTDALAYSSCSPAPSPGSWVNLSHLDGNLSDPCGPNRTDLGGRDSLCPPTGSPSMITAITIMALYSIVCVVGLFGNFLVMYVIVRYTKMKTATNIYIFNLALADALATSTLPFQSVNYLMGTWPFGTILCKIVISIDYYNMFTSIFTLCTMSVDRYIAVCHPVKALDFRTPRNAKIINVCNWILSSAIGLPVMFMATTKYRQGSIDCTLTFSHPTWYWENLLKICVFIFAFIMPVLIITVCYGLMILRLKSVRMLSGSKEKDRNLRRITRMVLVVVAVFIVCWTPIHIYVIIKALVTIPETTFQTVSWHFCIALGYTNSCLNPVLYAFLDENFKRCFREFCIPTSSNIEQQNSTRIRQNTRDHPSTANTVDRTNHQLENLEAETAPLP", "conditions": "PubChem; cited from earlier work"}, "opioid receptors (OPRD1)": {"biological_target": "opioid receptors (OPRD1) (Homo sapiens, UniProt P41143)", "sequence (P41143 whole entry, species assumed)": "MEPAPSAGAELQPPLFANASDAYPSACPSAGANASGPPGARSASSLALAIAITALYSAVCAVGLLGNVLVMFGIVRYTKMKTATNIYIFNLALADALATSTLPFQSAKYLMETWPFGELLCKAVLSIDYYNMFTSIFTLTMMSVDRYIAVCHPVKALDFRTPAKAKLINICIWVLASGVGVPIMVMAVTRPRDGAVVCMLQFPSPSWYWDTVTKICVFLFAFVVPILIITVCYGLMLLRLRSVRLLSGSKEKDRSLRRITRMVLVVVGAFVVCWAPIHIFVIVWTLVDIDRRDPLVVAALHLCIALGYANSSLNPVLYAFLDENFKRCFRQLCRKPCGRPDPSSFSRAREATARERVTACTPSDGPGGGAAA", "conditions": "PubChem; cited from earlier work"}, "opioid receptors (OPRK1)": {"biological_target": "opioid receptors (OPRK1) (Homo sapiens, UniProt P41145)", "sequence (P41145 whole entry, species assumed)": "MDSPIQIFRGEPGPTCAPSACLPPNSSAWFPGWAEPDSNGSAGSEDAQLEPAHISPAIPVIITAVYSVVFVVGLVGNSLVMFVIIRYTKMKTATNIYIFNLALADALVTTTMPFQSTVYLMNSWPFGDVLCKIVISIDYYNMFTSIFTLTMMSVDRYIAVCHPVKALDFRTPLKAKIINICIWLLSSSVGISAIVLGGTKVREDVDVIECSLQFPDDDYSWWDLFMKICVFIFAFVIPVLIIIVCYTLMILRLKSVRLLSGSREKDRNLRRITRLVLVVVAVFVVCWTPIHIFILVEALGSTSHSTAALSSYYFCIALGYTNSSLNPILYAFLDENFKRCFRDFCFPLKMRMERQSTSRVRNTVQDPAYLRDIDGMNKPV", "conditions": "PubChem; cited from earlier work"}, "[4]": {"conditions": "PubChem database search; cited from earlier work"}, "[5]": {"test_system": "broader panel of Zn metalloproteases", "experiment": "Profiling against broader panel of Zn metalloproteases", "type": "biochemical", "source_text": "(§1) An ADAM10 non-Zn-binding inhibition approach overcomes drawbacks of Zn-binders. As shown by global knockout studies. ADAM10 is vital for development, homeostasis and repair, which makes global inhibition of all functions of this enzyme non-feasible as a therapeutic approach. […] In previous research, the instant inventor conducted a HTS campaign to identify inhibitors of ADAM10 and ADAM17. […] This was verified by profiling studies. An exceptional HTS hit, however, is CID3117694 and related compounds (FIG. 7). While it contains highly polar functionality, these groups are not typical Zn binders, such as the hydroxamic acid groups highlighted in LT4, INCB8765, and GI254023X. […] This new class of selective ADAMI0 inhibitors acts via a non-Zn-binding mechanism and that potentially bind outside of an active site at the hitherto unknown secondary substrate binding site (exosite)."}, "ADAM10 [6]": {"biological_target": "T2, ADAM10", "experiment": "ADAM10 inhibition, HTS campaign and profiling", "type": "biochemical", "source_text": "as §1"}, "CCL2-induced": {"test_system": "CCL2-induced", "experiment": "Cell-based inhibition of CCL2-induced migration of PBMC (responsible ADAM 10)", "conditions": "Human, 10 μM tested", "source_text": "(§2) The instant inventor has discovered a conceptually novel class of ADAM10 inhibitors acting via a non-zinc-binding inhibition mechanism."}, "IL8-induced migration": {"test_system": "IL8-induced migration", "experiment": "Cell-based inhibition of IL8-induced migration of neutrophils (responsible ADAM 10)", "conditions": "Human, 10 μM tested", "source_text": "as §2"}, "CXCL16": {"test_system": "CXCL16", "experiment": "Cell-based inhibition of CXCL16 shedding (responsible ADAM 10) in A549 cells", "conditions": "CXCL16, Human, 10 μM tested", "source_text": "as §2"}, "muscarinic (CHRM1)": {"biological_target": "T3, muscarinic (CHRM1) (Homo sapiens, UniProt P11229)", "T3 sequence (P11229 1-460)": "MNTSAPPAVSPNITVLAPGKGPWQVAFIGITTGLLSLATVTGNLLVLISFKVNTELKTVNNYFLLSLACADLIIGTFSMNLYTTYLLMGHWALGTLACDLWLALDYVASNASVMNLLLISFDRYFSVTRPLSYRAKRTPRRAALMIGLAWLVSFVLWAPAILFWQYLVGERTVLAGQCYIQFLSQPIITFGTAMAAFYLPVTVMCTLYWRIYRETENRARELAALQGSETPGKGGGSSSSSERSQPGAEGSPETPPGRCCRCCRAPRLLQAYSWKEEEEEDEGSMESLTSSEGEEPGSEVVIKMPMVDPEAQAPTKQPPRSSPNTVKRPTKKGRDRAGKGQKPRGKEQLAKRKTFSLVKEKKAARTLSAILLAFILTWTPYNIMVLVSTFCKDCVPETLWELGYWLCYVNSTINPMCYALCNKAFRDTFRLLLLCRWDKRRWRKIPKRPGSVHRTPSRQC", "conditions": "PubChem; cited from earlier work"}, "adrenergic (ADRB2)": {"biological_target": "adrenergic (ADRB2) (Homo sapiens, UniProt P07550)", "sequence (P07550 whole entry, species assumed)": "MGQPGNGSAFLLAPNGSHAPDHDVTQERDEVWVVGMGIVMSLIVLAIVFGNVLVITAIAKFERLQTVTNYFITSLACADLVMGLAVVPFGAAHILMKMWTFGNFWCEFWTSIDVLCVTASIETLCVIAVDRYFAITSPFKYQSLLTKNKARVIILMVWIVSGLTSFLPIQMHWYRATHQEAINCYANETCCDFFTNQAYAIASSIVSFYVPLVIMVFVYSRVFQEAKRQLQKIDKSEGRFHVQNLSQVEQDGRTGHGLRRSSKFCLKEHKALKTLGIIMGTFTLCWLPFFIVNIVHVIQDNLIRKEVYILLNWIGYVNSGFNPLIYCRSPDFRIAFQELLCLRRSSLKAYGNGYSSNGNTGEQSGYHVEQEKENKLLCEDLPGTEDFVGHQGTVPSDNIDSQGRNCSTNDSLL", "conditions": "PubChem; cited from earlier work"}, "ADAM17 [7]": {"biological_target": "T1, ADAM17", "experiment": "ADAM17 counter-screen, HTS campaign and profiling", "type": "biochemical", "source_text": "as §1"}, "[8]": {"experiment": "Toxicity in cell-based assays", "source_text": "as §2"}, "ICOSL": {"test_system": "ICOSL", "experiment": "Cell-based inhibition of ICOSL shedding (responsible ADAM 10) in B cells", "conditions": "Mouse, 10 μM tested", "source_text": "as §2"}, "ADAM10 [9]": {"biological_target": "T2, ADAM10", "conditions": "PubChem AID 743338; cited from earlier work"}},
  "data": [
    {"smiles": "COc1ccc2c(c1)c(CC(=O)O)c(C)n2C(=O)c1ccc(Cl)cc1", "note": "[Indomethacin, indomethacin, reference compound]", "values": [
      {"measurement": "histopathology of right hind paws", "setting": "[1]; G3, CIA+Indomethacin 2.5 mg Kg", "value": "Normal Morphology of bone & cartilage of arthritis joint: Capital SI: Synovial inflammation: Capital H: Hyperplasia"}
    ]},
    {"smiles": "O=C(NO)[C@H]1C[C@H](OC(=O)N2CCCC2)CC[C@@H]1C(=O)N1CCC(c2ccccc2)CC1", "note": "[INCB8765]", "values": [
      {"measurement": "IC50", "setting": "ADAM17 [2]", "value": 2040, "unit": "nM"},
      {"measurement": "IC50", "setting": "ADAM10 [3]", "value": 97, "unit": "nM"}
    ]},
    {"smiles": "CNC(=O)[C@@H](NC(=O)[C@H](CCCc1ccccc1)[C@H](C)N(O)C=O)C(C)(C)C", "note": "[GI 254023X]", "values": [
      {"measurement": "IC50", "setting": "ADAM17 [2]", "value": 541, "unit": "nM"},
      {"measurement": "IC50", "setting": "ADAM10 [3]", "value": 5.3, "unit": "nM"}
    ]},
    {"smiles": "COc1cccc(C(=O)NNC(=O)C(=O)Nc2ccc(C)c(Cl)c2)c1", "note": "[CID3117694, N-(3-chloro-4-methylphenyl)-2-[2-(3-methoxybenzoyl) hydrazinyl]-2-oxoacetamide]", "values": [
      {"measurement": "activity against OPRM1", "setting": "opioid receptors (OPRM1)", "value": "inactive"},
      {"measurement": "activity against OPRD1", "setting": "opioid receptors (OPRD1)", "value": "inactive"},
      {"measurement": "activity against OPRK1", "setting": "opioid receptors (OPRK1)", "value": "inactive"},
      {"measurement": "biological activity across PubChem bioassays", "setting": "[4]", "value": "inactive in 524 bioassays and active only against 3 targets"},
      {"measurement": "affinity for a broader panel of Zn metalloproteases", "setting": "[5]", "value": "negligible affinity"},
      {"measurement": "ADAM10 inhibitory potency", "setting": "ADAM10 [6]", "value": "micromolar-potent"},
      {"measurement": "% Inhibition", "setting": "CCL2-induced", "value": 50, "unit": "%"},
      {"measurement": "% Inhibition", "setting": "IL8-induced migration", "value": 100, "unit": "%"},
      {"measurement": "% Inhibition", "setting": "CXCL16", "value": 80, "unit": "%"},
      {"measurement": "activity against CHRM1", "setting": "muscarinic (CHRM1)", "value": "inactive"},
      {"measurement": "activity against ADRB2", "setting": "adrenergic (ADRB2)", "value": "inactive"},
      {"measurement": "affinity for ADAM17", "setting": "ADAM17 [7]", "value": "negligible affinity"},
      {"measurement": "toxicity in cell-based assays", "setting": "[8]", "value": "lack of toxicity"},
      {"measurement": "% Inhibition", "setting": "ICOSL", "value": 95, "unit": "%"},
      {"measurement": "activity in PubChem bioassay", "setting": "ADAM10 [9]", "value": "active"},
      {"measurement": "RA disease score", "setting": "[1]; FIG. 1", "value": "dose-dependently lowers"},
      {"measurement": "paw swelling", "setting": "[1]; FIG. 2 measurement, FIGS. 3A-F observation", "value": "dose-dependently lowers"},
      {"measurement": "serum levels of RA biomarker C-reactive protein", "setting": "[1]; FIG. 4", "value": "dose-dependently decreases"},
      {"measurement": "serum levels of RA biomarker Interleukin-6 (IL-6)", "setting": "[1]; FIG. 5", "value": "dose-dependently decreases"},
      {"measurement": "serum levels of RA biomarker Interleukin-10 (IL-10)", "setting": "[1]; FIG. 6", "value": "dose-dependently decreases"},
      {"measurement": "histopathology of right hind paws", "setting": "[1]; G4, CIA+Test Comp 10 mg Kg", "value": "Synovial inflammation: Capital H: Hyperplasia: Capital P: Pannus Formation: Capital IEJ: Inflamed & eroded joint"},
      {"measurement": "histopathology of right hind paws", "setting": "[1]; G5, CIA+Test Comp 30 mg Kg", "value": "Synovial inflammation: Capital H: Hyperplasia"},
      {"measurement": "histopathology of right hind paws", "setting": "[1]; G6, CIA+Test Comp 50 mg Kg", "value": "Normal healthy bone & cartilage of arthritis joint: Capital H: Hyperplasia. Capital SI: Synovial inflammation"}
    ]}
  ]
}
